The values below come from patent US20090029992A1, “SUBSTITUTED PYRAZOLE COMPOUNDS” (priority 2007, published 2009).

Assay [1] has as its target T1, N-terminal His-tagged human Src (Homo sapiens, UniProt P12931).
T1 construct: His (N); purchased Upstate USA Inc, 706 Forest Street, Charlottesville, Va
The assay can be described thus: Src kinase inhibition assay (33P-ATP filter assay). The assay is classed as biochemical.

Assay [2] concerns the target T2, N-terminal His6-tagged recombinant human KDR, residues 790-end (Homo sapiens, UniProt P35968).
T2 construct: recombinant human KDR, residues 790-end; His6 (N); purchased Upstate USA Inc, 706 Forest Street, Charlottesville, Va
The assay can be described thus: KDR kinase inhibition assay (33P-ATP filter assay). The assay is classed as biochemical. In short, it runs like this: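 His6-tagged human KDR (residues 790-end, 5-10 mU) with 0.33 mg/mL myelin basic protein in 8 mM MOPS pH 7.0, 0.2 mM EDTA, 10 mM magnesium acetate and [γ-33P]ATP; 40 min at room temperature. Stopped with phosphoric acid, filter-bound 33P counted; inhibition relative to no-inhibitor controls.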

In the next assay the test system is HCT116 cells. The assay can be described thus: Whole cell cytotoxicity assay, Sulforhodamine B. The assay is classed as cell-based. The note with it: Homo sapiens, HCT-116, HCT116, 96 hours incubation, SRB; for IC50: read-out: IC50 values in this assay (HCT116 cell growth); for GI50: read-out: GI50 HCT116 cell growth. In short, it runs like this:
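HCT116 cells (500/well) in DMEM/10% FBS/2 mM glutamine were preincubated 24 h, then exposed to compound for 96 h at 37 °C, 5% CO2, in duplicate. Cells were fixed with TCA and stained with sulforhodamine B (A570). GI50, TGI and LC50 were derived relative to a time-zero plate and an untreated control.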

Setting [3] is: group with IC50 greater than 100 nM.

T2 sequence (P35968 790-1356 limits assumed): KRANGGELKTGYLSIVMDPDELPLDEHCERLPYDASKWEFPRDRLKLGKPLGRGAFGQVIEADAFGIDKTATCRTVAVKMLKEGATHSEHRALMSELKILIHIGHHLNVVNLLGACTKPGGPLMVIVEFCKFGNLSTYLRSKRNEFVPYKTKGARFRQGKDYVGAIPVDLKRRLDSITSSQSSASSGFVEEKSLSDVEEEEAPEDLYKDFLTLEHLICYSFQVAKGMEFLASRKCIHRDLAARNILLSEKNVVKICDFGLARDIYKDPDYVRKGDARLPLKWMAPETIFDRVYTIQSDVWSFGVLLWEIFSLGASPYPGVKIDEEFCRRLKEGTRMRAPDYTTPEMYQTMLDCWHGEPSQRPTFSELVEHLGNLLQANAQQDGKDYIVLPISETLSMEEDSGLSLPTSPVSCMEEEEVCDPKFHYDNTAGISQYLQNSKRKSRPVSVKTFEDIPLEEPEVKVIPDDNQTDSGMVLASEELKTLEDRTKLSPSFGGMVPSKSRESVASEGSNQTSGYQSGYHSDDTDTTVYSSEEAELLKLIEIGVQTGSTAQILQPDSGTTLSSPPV
T1 sequence (P12931 whole entry): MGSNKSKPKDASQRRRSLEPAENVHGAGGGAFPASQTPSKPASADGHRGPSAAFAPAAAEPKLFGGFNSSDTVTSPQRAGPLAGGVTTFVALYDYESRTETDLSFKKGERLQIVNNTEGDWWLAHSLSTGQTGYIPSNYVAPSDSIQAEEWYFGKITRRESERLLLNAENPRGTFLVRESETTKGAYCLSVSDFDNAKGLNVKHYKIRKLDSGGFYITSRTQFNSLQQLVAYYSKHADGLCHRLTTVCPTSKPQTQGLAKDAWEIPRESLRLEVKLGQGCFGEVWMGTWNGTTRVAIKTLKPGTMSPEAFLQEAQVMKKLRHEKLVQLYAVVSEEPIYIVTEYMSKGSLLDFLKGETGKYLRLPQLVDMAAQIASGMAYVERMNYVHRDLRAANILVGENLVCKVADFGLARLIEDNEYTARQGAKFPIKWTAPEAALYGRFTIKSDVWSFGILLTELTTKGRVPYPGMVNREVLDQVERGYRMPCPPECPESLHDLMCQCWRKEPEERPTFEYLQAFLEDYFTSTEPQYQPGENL

By IC50 is commonly meant the midpoint of a concentration-inhibition curve. `Cc1cc(Nc2cc(NC3CCOCC3)nc(-c3ccc(F)cc3)n2)n[nH]1` [Compound 19, 2-(4-fluorophenyl)-N^4-(5-methyl-1H-pyrazol-3-yl)-N^6-(tetrahydro-2H-pyran-4-yl)pyrimidine-4,6-diamine]: the IC50 is no more than 1000 nM in assay [1] (setting [3]), no more than 1000 nM in assay [2] (setting [3]) and 1000 to 10000 nM in the assay on HCT116 cells.
For the compound `Cc1cc(Nc2cc(NC3CCOCC3)nc(-c3ccc4c(c3)OCCO4)n2)n[nH]1` [Example 130, 2-(2,3-dihydrobenzo[b][1,4]dioxin-6-yl)-N^4-(5-methyl-1H-pyrazol-3-yl)-N^6-(tetrahydro-2H-pyran-4-yl)pyrimidine-4,6-diamine], the IC50 in assay [1] (40 minutes at room temperature) was no more than 100 nM; in assay [2] (setting [3]), no more than 1000 nM; in the assay with HCT116 cells, 1000 to 10000 nM.
By GI50 is commonly meant the concentration giving 50% growth inhibition. Turning to `CCOc1cccc(-c2nc(Nc3cc(C)[nH]n3)cc(N3CCN(C)CC3)n2)c1` [Example 190, 2-(3-ethoxyphenyl)-N-(5-methyl-1H-pyrazol-3-yl)-6-(4-methylpiperazin-1-yl)pyrimidin-4-amine], the IC50 in assay [1] (40 minutes at room temperature) and in assay [2] (40 minutes at room temperature) was no more than 100 nM each time. In addition, the GI50 in the assay with HCT116 cells is no more than 1000 nM.
As to `Cc1cc(Nc2cc(NC3CCOCC3)nc(-c3cccc(-c4ccccc4)c3)n2)n[nH]1` [Example 159, 2-(biphenyl-3-yl)-N^4-(5-methyl-1H-pyrazol-3-yl)-N^6-(tetrahydro-2H-pyran-4-yl)pyrimidine-4,6-diamine], the IC50 in assay [1] (setting [3]) is no more than 1000 nM; in assay [2] (setting [3]), no more than 1000 nM; in the assay with HCT116 cells it was 1000 to 10000 nM.
For `Cc1cc(Nc2cc(NC3CCOCC3)nc(-c3ccc(Cl)cc3)n2)n[nH]1` [Compound 22, 2-(4-chlorophenyl)-N^4-(5-methyl-1H-pyrazol-3-yl)-N^6-(tetrahydro-2H-pyran-4-yl)pyrimidine-4,6-diamine], the figures for the IC50 (in assay [1] (setting [3]); in assay [2] (setting [3]); in the assay with HCT116 cells) were no more than 1000 nM, no more than 1000 nM and 1000 to 10000 nM, respectively.
For `Cc1cc(Nc2cc(N3CCN(C)CC3)nc(-c3ccc(Cl)cc3)n2)n[nH]1` [Compound 35, 2-(4-chlorophenyl)-N-(5-methyl-1H-pyrazol-3-yl)-6-(4-methylpiperazin-1-yl)pyrimidin-4-amine], the values for the concentration for half-maximal inhibition (IC50) (in assay [1] (40 minutes at room temperature); in assay [2] (40 minutes at room temperature); with HCT116 cells) were no more than 100 nM, no more than 100 nM and 1000 to 10000 nM, respectively.
For `COCCN(C)c1cc(Nc2cc(C)[nH]n2)nc(-c2cccc(N(C)C)c2)n1` [Compound 119, 2-(3-(dimethylamino)phenyl)-N^4-(2-methoxyethyl)-N^4-methyl-N^6-(5-methyl-1H-pyrazol-3-yl)pyrimidine-4,6-diamine], the IC50 in assay [1] (40 minutes at room temperature) was no more than 100 nM; in assay [2] (setting [3]), no more than 1000 nM; with HCT116 cells, 1000 to 10000 nM.
On the same counts, the results for `Cc1cc(Nc2cc(N3CCN(C)CC3)nc(-c3cccc(OC(F)(F)F)c3)n2)n[nH]1` [Example 192, N-(5-methyl-1H-pyrazol-3-yl)-6-(4-methylpiperazin-1-yl)-2-(3-(trifluoromethoxy)phenyl)pyrimidin-4-amine] are no more than 100 nM, no more than 1000 nM and 1000 to 10000 nM.
With `Cc1cc(Nc2cc(NC3CCOCC3)nc(-c3ccc4c(c3)OCO4)n2)n[nH]1` [Example 132, 2-(benzo[d][1,3]dioxol-5-yl)-N^4-(5-methyl-1H-pyrazol-3-yl)-N^6-(tetrahydro-2H-pyran-4-yl)pyrimidine-4,6-diamine], the IC50 was no more than 100 nM in assay [1] (40 minutes at room temperature), no more than 100 nM in assay [2] (40 minutes at room temperature) and 1000 to 10000 nM in the assay with HCT116 cells.
With `Cc1cc(Nc2cc(N3CCN(C)CC3)nc(-c3cccc(OCc4ccccc4)c3)n2)n[nH]1` [Example 188, 2-(3-(benzyloxy)phenyl)-N-(5-methyl-1H-pyrazol-3-yl)-6-(4-methylpiperazin-1-yl)pyrimidin-4-amine], the IC50 in assay [1] (setting [3]) was no more than 1000 nM; in assay [2] (setting [3]) it was no more than 1000 nM; in the assay on HCT116 cells, 1000 to 10000 nM.
On to `Cc1ccc(C)c(-c2nc(Nc3cc(C)[nH]n3)cc(N3CCN(C)CC3)n2)c1` [Example 201, 2-(2,5-dimethylphenyl)-N-(5-methyl-1H-pyrazol-3-yl)-6-(4-methylpiperazin-1-yl)pyrimidin-4-amine], for which the values for the IC50 (in assay [1] (setting [3]); in assay [2] (setting [3]); in the assay with HCT116 cells) were no more than 1000 nM, no more than 1000 nM and 1000 to 10000 nM, respectively.
Consider `Cc1cc(Nc2cc(N3CCN(C)CC3)nc(-c3ccc4c(c3)OC(F)(F)O4)n2)n[nH]1` [Example 178, 2-(2,2-difluorobezo[d][1,3]dioxol-5-yl)-N-(5-methyl-1H-pyrazol-3-yl)-6-(4-methylpiperazin-1-yl)pyrimidin-4-amine], for which the values for the IC50 in assay [1] (40 minutes at room temperature) and in assay [2] (setting [3]) were no more than 100 nM and no more than 1000 nM, respectively. The 50% growth inhibitory concentration (GI50) with HCT116 cells is no more than 1000 nM.
Take `Cc1cc(Nc2cc(N(C)CCN(C)C)nc(-c3cccc(Cl)c3)n2)n[nH]1` [Compound 49, 2-(3-chlorophenyl)-N^4-(2-(dimethylamino)ethyl)-N^4-methyl-N^6-(5-methyl-1H-pyrazol-3-yl)pyrimidine-4,6-diamine]: the IC50 in assay [1] (40 minutes at room temperature) and in assay [2] (40 minutes at room temperature) was no more than 100 nM in each case. In addition, the GI50 with HCT116 cells was no more than 1000 nM.
On to `COc1cccc(-c2nc(Nc3cc(C)[nH]n3)cc(NC3CCOCC3)n2)c1` [Compound 29, 2-(3-methoxyphenyl)-N^4-(5-methyl-1H-pyrazol-3-yl)-N^6-(tetrahydro-2H-pyran-4-yl)pyrimidine-4,6-diamine], for which the IC50 was no more than 100 nM in assay [1] (40 minutes at room temperature), no more than 100 nM in assay [2] (40 minutes at room temperature) and 1000 to 10000 nM in the assay with HCT116 cells.
For `Cc1cc(Nc2cc(N(C)CCN(C)C)nc(-c3cc4ccccc4n3C)n2)n[nH]1` [Compound 4, N^4-(2-(dimethylamino)ethyl)-N^4-methyl-2-(1-methyl-1H-indol-2-yl)-N^6-(5-methyl-1H-pyrazol-3-yl)pyrimidine-4,6-diamine], the results for the half-maximal inhibitory concentration (IC50) in assay [1] (40 minutes at room temperature) and in assay [2] (setting [3]) were no more than 100 nM and no more than 1000 nM, respectively. In the assay with HCT116 cells, the 50% growth inhibitory concentration (GI50) is no more than 1000 nM.
In the case of `Cc1cc(Nc2cc(N3CCN(C)CC3)nc(-c3cc4cc(NS(=O)(=O)C5CC5)ccc4o3)n2)n[nH]1` [Example 155, N-(2-(4-(5-methyl-1H-pyrazol-3-ylamino)-6-(4-methylpiperazin-1-yl)pyrimidin-2-yl)benzofuran-5-yl)cyclopropanesulfonamide], the IC50 in assay [1] (40 minutes at room temperature) and in assay [2] (40 minutes at room temperature) was no more than 100 nM in each case. The GI50 with HCT116 cells is no more than 1000 nM.
For the compound `Cc1cc(Nc2cc(N3CCN(C)CC3)nc(-c3ccccc3C)n2)n[nH]1` [Compound 40, N-(5-methyl-1H-pyrazol-3-yl)-6-(4-methylpiperazin-1-yl)-2-o-tolylpyrimidin-4-amine], the figures for the 50% inhibitory concentration (IC50) (in assay [1] (40 minutes at room temperature); in assay [2] (40 minutes at room temperature); in the assay with HCT116 cells) were no more than 100 nM, no more than 100 nM and 1000 to 10000 nM, respectively.
With `CC(=O)c1cccc(-c2nc(Nc3cc(C)[nH]n3)cc(N3CCN(C)CC3)n2)c1` [Example 165, 1-(3-(4-(5-methyl-1H-pyrazol-3-ylamino)-6-(4-methylpiperazin-1-yl)pyrimidin-2-yl)phenyl)ethanone], the IC50 in assay [2] (40 minutes at room temperature) was no more than 100 nM. The GI50 in the assay on HCT116 cells is no more than 1000 nM.
For the compound `Cc1cc(Nc2cc(N3CCN(C)CC3)nc(-c3ccc4c(c3)OCCO4)n2)n[nH]1` [Example 137, 2-(2,3-dihydrobenzo[b][1,4]dioxin-6-yl)-N-(5-methyl-1H-pyrazol-3-yl)-6-(4-methylpiperazin-1-yl)pyrimidin-4-amine], the IC50 in assay [1] (40 minutes at room temperature) and in assay [2] (40 minutes at room temperature) was no more than 100 nM in each case. Besides, the concentration for 50% growth inhibition (GI50) with HCT116 cells was no more than 1000 nM.
With `Cc1cc(Nc2cc(N3CCN(C)CC3)nc(-c3ccc([N+](=O)[O-])cc3)n2)n[nH]1` [Example 164, N-(5-methyl-1H-pyrazol-3-yl)-6-(4-methylpiperazin-1-yl)-2-(4-nitrophenyl)pyrimidin-4-amine], the values for the 50% inhibitory concentration (IC50) (in assay [1] (40 minutes at room temperature); in the assay with HCT116 cells) were no more than 100 nM and 1000 to 10000 nM, respectively.
Turning to `Cc1cc(Nc2cc(NCCN3CCOCC3)nc(-c3ccccc3)n2)n[nH]1` [Compound 11, N^4-(5-methyl-1H-pyrazol-3-yl)-N^6-(2-morpholinoethyl)-2-phenylpyrimidine-4,6-diamine], the IC50 was no more than 1000 nM in assay [1] (setting [3]) and no more than 100 nM in assay [2] (40 minutes at room temperature). Also, the GI50 with HCT116 cells is no more than 1000 nM.
On to `COCCNc1cc(Nc2cc(C)[nH]n2)nc(-c2ccccc2)n1` [Compound 10, N^4-(2-methoxyethyl)-N^6-(5-methyl-1H-pyrazol-3-yl)-2-phenylpyrimidine-4,6-diamine], for which the IC50 was no more than 100 nM in assay [2] (40 minutes at room temperature) and 1000 to 10000 nM in the assay on HCT116 cells.
`Cc1cc(Nc2cc(N3CCN(C)CC3)nc(-c3cc(F)cc(F)c3)n2)n[nH]1` [Example 170, 2-(3,5-difluorophenyl)-N-(5-methyl-1H-pyrazol-3-yl)-6-(4-methylpiperazin-1-yl)pyrimidin-4-amine]: the IC50 in assay [1] (40 minutes at room temperature) was no more than 100 nM. Also, the concentration for 50% growth inhibition (GI50) in the assay with HCT116 cells was no more than 1000 nM.
As to `Cc1cc(Nc2cc(NC3CCOCC3)nc(-c3ccc(-c4ccccc4)cc3)n2)n[nH]1` [Example 158, 2-(biphenyl-4-yl)-N^4-(5-methyl-1H-pyrazol-3-yl)-N^6-(tetrahydro-2H-pyran-4-yl)pyrimidine-4,6-diamine], the IC50 in assay [1] (setting [3]) is no more than 1000 nM; in the assay with HCT116 cells, 1000 to 10000 nM.
As to `Cc1cc(Nc2cc(N3CCN(C)CC3)nc(-c3cccc(N(C)C)c3)n2)n[nH]1` [Compound 86, 2-(3-(dimethylamino)phenyl)-N-(5-methyl-1H-pyrazol-3-yl)-b-(4-methylpiperazin-1-yl)pyrimidin-4-amine], in assay [1] (40 minutes at room temperature), the half-maximal inhibitory concentration (IC50) was no more than 100 nM. For the same compound, the GI50 in the assay on HCT116 cells is no more than 1000 nM.
